Target: T1, KV7.4-W242L (Homo sapiens, UniProt P56696, W242L)
T1 construct: expressed in transfected cells; host or cells: Xenopus laevis oocytes injected with cRNA (pGEM-HE vector)
T1 sequence (P56696 1-695 W242L): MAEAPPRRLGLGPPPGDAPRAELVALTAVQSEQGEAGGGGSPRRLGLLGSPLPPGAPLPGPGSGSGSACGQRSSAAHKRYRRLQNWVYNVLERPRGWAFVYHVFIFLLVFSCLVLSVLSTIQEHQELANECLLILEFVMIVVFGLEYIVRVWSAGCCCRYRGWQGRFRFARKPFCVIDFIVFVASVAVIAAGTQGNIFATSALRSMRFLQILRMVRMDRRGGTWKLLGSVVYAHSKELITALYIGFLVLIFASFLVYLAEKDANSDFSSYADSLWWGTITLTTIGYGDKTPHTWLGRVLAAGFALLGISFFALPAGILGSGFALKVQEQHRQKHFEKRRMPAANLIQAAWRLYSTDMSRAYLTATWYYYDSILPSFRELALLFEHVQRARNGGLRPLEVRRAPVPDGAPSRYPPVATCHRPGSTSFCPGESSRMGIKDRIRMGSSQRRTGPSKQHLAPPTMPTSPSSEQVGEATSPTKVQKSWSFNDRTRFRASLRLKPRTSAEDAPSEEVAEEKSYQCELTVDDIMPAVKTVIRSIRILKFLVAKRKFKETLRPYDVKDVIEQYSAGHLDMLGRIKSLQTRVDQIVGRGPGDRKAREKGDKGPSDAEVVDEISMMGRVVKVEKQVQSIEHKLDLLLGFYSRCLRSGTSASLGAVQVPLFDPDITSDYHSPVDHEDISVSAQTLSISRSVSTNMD
Test: Two-electrode voltage-clamp of mutant KV7.4-W242L in Xenopus laevis oocytes
Assay type: cell-based
Procedure: Point mutations were introduced using mutated oligonucleotide extension (PfuTurbo Polymerase, Stratagene, La Jolla, CA, USA) from a plasmid template harboring the cDNA of interest, digested with DpnI (Fermentas, St. Leon-Roth, Germany) and transformed into E.coli XL1 Blue cells. The construct was verified by complete DNA sequencing of the cDNA insert. cRNA was prepared from linearized human wild-type (WT) and mutant KV7 channels in the pGEM-HE vector using the T7 m-Message Machine kit (Ambion, Austin, TX, USA) according to the manufacturer's instructions.
Extraction of Xenopus laevis oocytes and injection of cRNA was performed as described previously. Oocytes were kept in Modified Barth's Saline (in mM: 88 NaCl, 1 KCl, 2.4 NaHCO3, 0.41 CaCl2, 0.82 MgSO4, 0.3 Ca(NO3)2, 15 HEPES, pH 7.4 supplemented with 100 U/mL penicillin and 100 µg/mL streptomycin) at 18°C, and currents were recorded after 2-7 days. The care of Xenopus laevis and the oocyte extraction procedure were performed according to national guidelines and approved by the Danish Animal Experiments Inspectorate.
KV7 currents in Xenopus laevis oocytes were recorded using two-electrode voltage-clamp at room temperature in Ringer buffer (in mM: 115 NaCl, 2.5 KCl, 1.8 CaCl2, 0.1 MgCl2, 10 HEPES, pH 7.4) as described previously. Data was acquired using pCLAMP 10.2 software (Molecular Devices, CA, USA) and analyzed using pCLAMP 10.2 and GraphPad Prism 4.0 (GraphPad Software Inc., CA, USA). Currents were elicited from a holding potential of −80 mV by 5 s steps to potentials between −100 and +50 mV in 10 mV increments, followed by a 2 s step to −120 mV.
SMB-1 was dissolved in dimethyl sulfoxide (DMSO) to obtain a concentrated stock solution. […]
Current – voltage (I–V) relationship curves were generated by normalizing the steady-state peak current measured at potentials between −100 and +50 mV to the current measured at +50 mV in control recordings and plotting the values against the test potential.
The voltage-dependence of activation was determined from tail current analysis using the current measured immediately after the transient capacitive current after stepping to −120 mV from potentials between −100 mV and +50 mV. […] A V0.5 was calculated for each individual experiment and statistical significance was estimated by paired two-tailed Student's t-test.
Activation kinetics for KV7.4 and KV7.4-W242L was determined by fitting the traces recorded at potentials between −30 and +50 mV to a single exponential function: [drawing 3] […]
For investigation of deactivation kinetics the tail current traces recorded at −120 mV when stepping from the channels' respective ∼V0.5 were fitted to a single exponential function (Eq. 3).

effect on activation kinetics (10 µM): neither any significant effect
remaining activity at 10 µM (10 µM SMB-1, +50 mV, n = 5, read-out: current amplitude, % of control): 74.8 ± 4.2%
V0.5, voltage-dependence of activation in presence of compound (10 µM, control 5.5±4.5 mV, n = 5, p = 0.2): 4.3±4.9 mV
τdeact, deactivation time constant in presence of compound (10 µM, control 12.5±2.2 ms, n = 5, p = 0.5): 12.3 ± 2.2 ms
SMILES: C[C@@H](c1ccc2c(c1)N(CC1CC1)CCO2)N(C)C(=O)/C=C/c1ccccc1F [SMB-1, (E)-N-[(S)-1-(4-Cyclopropylmethyl-3,4-dihydro-2H-1,4-benzoxazin-6-yl)-ethyl]-3-(2-fluoro-phenyl)-N-methyl-acrylamide]

— publication PMC4067310, “From Pan-Reactive KV7 Channel Opener to Subtype Selective Opener/Inhibitor by Addition of a Methyl Group” (PLoS ONE, 2014)
